Tested on: KRAS-mutant PDC tumor spheroid with HUVEC/MSC, viability
Assay: Anticancer human tumor 327498-153-R-J2-PDC patient-derived uterine carcinosarcoma cell line growth inhibition [KRAS2]
Conditions: for IC50: curve of first compound; for viability, T/C: stronger effect = lower value
How it was run: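 Combination screen of spheroid viability in tumor-cell co-cultures with endothelial (HUVEC) and mesenchymal stem cell stroma. Each agent was tested in half-log dilutions, topping at clinical Cmax or at 10 microM without a known Cmax.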

[1] = second compound 0.1 µM, first compound 0.0316 µM
[2] = second compound 0.1 µM, first compound 0.1 µM
[3] = second compound 0.1 µM, first compound 0.316 µM
[4] = second compound 0.1 µM, first compound 1 µM
[5] = second compound 0.1 µM, first compound 3.16 µM
[6] = second compound 0.1 µM, first compound 10 µM
[7] = second compound 0.316 µM, first compound 0.0316 µM
[8] = second compound 0.316 µM, first compound 0.1 µM
[9] = second compound 0.316 µM, first compound 0.316 µM
[10] = second compound 0.316 µM, first compound 1 µM
[11] = second compound 0.316 µM, first compound 3.16 µM
[12] = second compound 0.316 µM, first compound 10 µM
[13] = second compound 1 µM, first compound 0.0316 µM
[14] = second compound 1 µM, first compound 0.1 µM
[15] = second compound 1 µM, first compound 0.316 µM
[16] = second compound 1 µM, first compound 1 µM
[17] = second compound 1 µM, first compound 3.16 µM
[18] = second compound 1 µM, first compound 10 µM
[19] = second compound 3.16 µM, first compound 0.0316 µM
[20] = second compound 3.16 µM, first compound 0.1 µM
[21] = second compound 3.16 µM, first compound 0.316 µM
[22] = second compound 3.16 µM, first compound 1 µM
[23] = second compound 3.16 µM, first compound 3.16 µM
[24] = second compound 3.16 µM, first compound 10 µM
[25] = second compound 10 µM, first compound 0.0316 µM
[26] = second compound 10 µM, first compound 0.1 µM
[27] = second compound 10 µM, first compound 0.316 µM
[28] = second compound 10 µM, first compound 1 µM
[29] = second compound 10 µM, first compound 3.16 µM
[30] = second compound 10 µM, first compound 10 µM
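Note: spheroids exposed to agents for seven days before reading.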
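Throughout, for viability, T/C: 100% = DMSO vehicle wells so lower means fewer viable cells.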

Q: How did the IC50 (second compound 0.1 µM) turn out when `CCNC(=O)CC1N=C(c2ccc(Cl)cc2)c2cc(OC)ccc2-n2c(C)nnc21` (stereo not given) + C=CC(=O)N1CCN(c2nc(=O)n(-c3c(C)ccnc3C(C)C)c3nc(-c4c(O)cccc4F)c(F)cc23)C(C)C1 was run?
A: 253 nM

Q: And the IC50 (second compound 0.316 µM)?
A: 103 nM

Q: And the IC50 (second compound 1 µM)?
A: 154 nM

Q: And the IC50 (second compound 3.16 µM)?
A: 117 nM

Q: And the IC50 (second compound 10 µM)?
A: < 31.6 nM

Q: And the viability, T/C [1]?
A: 58.2%

Q: What about the viability, T/C [2] of the same compound?
A: 58.7%

Q: What about the viability, T/C [3] of the same compound?
A: 45.8%

Q: And the viability, T/C [4]?
A: 40.4%

Q: What about the viability, T/C [5] of the same compound?
A: 29.7%

Q: And the viability, T/C [6]?
A: 24.3%

Q: And the viability, T/C [7]?
A: 55.6%

Q: What about the viability, T/C [8] of the same compound?
A: 50.7%

Q: And the viability, T/C [9]?
A: 45.7%

Q: What about the viability, T/C [10] of the same compound?
A: 33.5%

Q: And the viability, T/C [11]?
A: 28.6%

Q: And the viability, T/C [12]?
A: 22.3%

Q: And the viability, T/C [13]?
A: 60.4%

Q: And the viability, T/C [14]?
A: 51.2%

Q: And the viability, T/C [15]?
A: 51.1%

Q: What about the viability, T/C [16] of the same compound?
A: 33.7%

Q: What about the viability, T/C [17] of the same compound?
A: 26.2%

Q: What about the viability, T/C [18] of the same compound?
A: 22.7%

Q: And the viability, T/C [19]?
A: 55.4%

Q: And the viability, T/C [20]?
A: 48.9%

Q: What about the viability, T/C [21] of the same compound?
A: 46.3%

Q: And the viability, T/C [22]?
A: 35.8%

Q: What about the viability, T/C [23] of the same compound?
A: 26.5%

Q: And the viability, T/C [24]?
A: 19.1%

Q: What about the viability, T/C [25] of the same compound?
A: 41.6%

Q: And the viability, T/C [26]?
A: 43.3%

Q: What about the viability, T/C [27] of the same compound?
A: 33.2%

Q: What about the viability, T/C [28] of the same compound?
A: 26.9%

Q: What about the viability, T/C [29] of the same compound?
A: 23.5%

Q: And the viability, T/C [30]?
A: 17.9%

Q: What does the source list for `CC(=O)Nc1cccc(-n2c(=O)n(C3CC3)c(=O)c3c(Nc4ccc(I)cc4F)n(C)c(=O)c(C)c32)c1` + COc1cc2nc(C)nc(NC(C)c3cc(N)cc(C(F)(F)F)c3)c2cc1OC1CCOC1?
A: IC50 (second compound 0.1 µM): 3.71 nM; IC50 (second compound 0.316 µM): 2.62 nM; IC50 (second compound 1 µM): 2.12 nM; IC50 (second compound 3.16 µM): 1.05 nM; IC50 (second compound 10 µM): < 0.1 nM; viability, T/C (second compound 0.1 µM, first compound 0.0001 µM): 67.4%; viability, T/C (second compound 0.1 µM, first compound 0.000316 µM): 68.6%; viability, T/C (second compound 0.1 µM, first compound 0.001 µM): 55.7%; viability, T/C (second compound 0.1 µM, first compound 0.00316 µM): 48.5%; viability, T/C (second compound 0.1 µM, first compound 0.01 µM): 46.1%; viability, T/C [1]: 25.5%; viability, T/C (second compound 0.316 µM, first compound 0.0001 µM): 74.9%; viability, T/C (second compound 0.316 µM, first compound 0.000316 µM): 63.1%; viability, T/C (second compound 0.316 µM, first compound 0.001 µM): 54.5%; viability, T/C (second compound 0.316 µM, first compound 0.00316 µM): 50.9%; viability, T/C (second compound 0.316 µM, first compound 0.01 µM): 43.2%; viability, T/C [7]: 26.8%; viability, T/C (second compound 1 µM, first compound 0.0001 µM): 64.6%; viability, T/C (second compound 1 µM, first compound 0.000316 µM): 67.3%; viability, T/C (second compound 1 µM, first compound 0.001 µM): 52.3%; viability, T/C (second compound 1 µM, first compound 0.00316 µM): 44.3%; viability, T/C (second compound 1 µM, first compound 0.01 µM): 40.8%; viability, T/C [13]: 22.9%; viability, T/C (second compound 3.16 µM, first compound 0.0001 µM): 56.5%; viability, T/C (second compound 3.16 µM, first compound 0.000316 µM): 52.6%; viability, T/C (second compound 3.16 µM, first compound 0.001 µM): 47.9%; viability, T/C (second compound 3.16 µM, first compound 0.00316 µM): 44.1%; viability, T/C (second compound 3.16 µM, first compound 0.01 µM): 40%; viability, T/C [19]: 22.4%; viability, T/C (second compound 10 µM, first compound 0.0001 µM): 48.1%; viability, T/C (second compound 10 µM, first compound 0.000316 µM): 37.7%; viability, T/C (second compound 10 µM, first compound 0.001 µM): 38.4%; viability, T/C (second compound 10 µM, first compound 0.00316 µM): 29.8%; viability, T/C (second compound 10 µM, first compound 0.01 µM): 31.1%; viability, T/C [25]: 18.3%

Q: Which results are given for `CC(C)NCC(C(=O)N1CCN(c2ncnc3c2C(C)CC3O)CC1)c1ccc(Cl)cc1` (stereo not given) + CC1OCC2(CCN(c3cnc(Sc4ccnc(N)c4Cl)c(N)n3)CC2)C1N?
A: IC50 (second compound 0.1 µM): 105 nM; IC50 (second compound 0.316 µM): < 31.6 nM; IC50 (second compound 1 µM): < 31.6 nM; IC50 (second compound 3.16 µM): < 31.6 nM; IC50 (second compound 10 µM): < 31.6 nM; viability, T/C [1]: 59.3%; viability, T/C [2]: 52.5%; viability, T/C [3]: 32.5%; viability, T/C [4]: 22.5%; viability, T/C [5]: 16.5%; viability, T/C [6]: 11.9%; viability, T/C [7]: 43.1%; viability, T/C [8]: 33%; viability, T/C [9]: 16.4%; viability, T/C [10]: 13.8%; viability, T/C [11]: 10.8%; viability, T/C [12]: 7.02%; viability, T/C [13]: 29.1%; viability, T/C [14]: 20.7%; viability, T/C [15]: 14.5%; viability, T/C [16]: 8.77%; viability, T/C [17]: 7.91%; viability, T/C [18]: 5.17%; viability, T/C [19]: 20.9%; viability, T/C [20]: 15.3%; viability, T/C [21]: 9.04%; viability, T/C [22]: 6.16%; viability, T/C [23]: 5.92%; viability, T/C [24]: 4.91%; viability, T/C [25]: 16.4%; viability, T/C [26]: 12.2%; viability, T/C [27]: 9.27%; viability, T/C [28]: 6.34%; viability, T/C [29]: 4.8%; viability, T/C [30]: 3.45%

— PubChem BioAssay AID1963867 (Molecular Pharmacology Branch, DTP, NCI, 2024)
